# Measurements from patent US20030125569A1, “Use of packing strip as a holographic data carrier” (priority 2002, published 2003).
# How the values were obtained:
# [1] = Estimated water content of crystalline forms after exposure to an atmosphere of defined relative humidity; format: physicochemical; details: (3R,5S)-enantiomer; form obtained from Form E by exposure to defined relative humidity (A: 0 to 20%; B1/B2: 20 to 55%; C: 75%; D: 90%); monosodium salt
# Procedure: The preparation of crystalline polymorphic Forms A, B1, B2, C and D is usually carried out by using Form E as the starting compound and by exposing Form E to an atmosphere having a defined relative humidity. Depending on the relative humidity used the different forms can be obtained.
# Form E of Fluvastatin sodium ((3R,5S)-enantiomer) is first exposed to an atmosphere having a relative humidity of 90% for about 4 hours and subsequently to an atmosphere of 0 to 20% for about 90 minutes. This treatment leads to Form A of the (3R,5S)-enantiomer with an estimated water content of 0 to 5%. The above treatment can be carried out in an X-ray diffractometer in which the relative humidity of the atmosphere can be controlled during the measurement. X-ray powder diffraction studies show the product to be polymorphic Form A (see FIG. 1).
# Form E of Fluvastatin sodium ((3R,5S)-enantiomer) is first exposed to an atmosphere having a relative humidity of 90% for about 4 hours and subsequently to an atmosphere of 20 to 55% for about 3 hours. This treatment leads to either Form B1 or Form B2 of the (3R,5S)-enantiomer with an estimated water content of 5 to 15%. The above treatment can be carried out in an X-ray diffractometer in which the relative humidity of the atmosphere can be controlled during the measurement. […]
# [2] = target: T1, 3-hydroxy-3-methylglutaryl coenzyme A (HMG-CoA) (Homo sapiens, UniProt P04035); details: O. Tempkin et al., Tetrahedron 1997, vol. 53, pages 10659-10670; cited from earlier work
# T1 sequence (P04035 1-888): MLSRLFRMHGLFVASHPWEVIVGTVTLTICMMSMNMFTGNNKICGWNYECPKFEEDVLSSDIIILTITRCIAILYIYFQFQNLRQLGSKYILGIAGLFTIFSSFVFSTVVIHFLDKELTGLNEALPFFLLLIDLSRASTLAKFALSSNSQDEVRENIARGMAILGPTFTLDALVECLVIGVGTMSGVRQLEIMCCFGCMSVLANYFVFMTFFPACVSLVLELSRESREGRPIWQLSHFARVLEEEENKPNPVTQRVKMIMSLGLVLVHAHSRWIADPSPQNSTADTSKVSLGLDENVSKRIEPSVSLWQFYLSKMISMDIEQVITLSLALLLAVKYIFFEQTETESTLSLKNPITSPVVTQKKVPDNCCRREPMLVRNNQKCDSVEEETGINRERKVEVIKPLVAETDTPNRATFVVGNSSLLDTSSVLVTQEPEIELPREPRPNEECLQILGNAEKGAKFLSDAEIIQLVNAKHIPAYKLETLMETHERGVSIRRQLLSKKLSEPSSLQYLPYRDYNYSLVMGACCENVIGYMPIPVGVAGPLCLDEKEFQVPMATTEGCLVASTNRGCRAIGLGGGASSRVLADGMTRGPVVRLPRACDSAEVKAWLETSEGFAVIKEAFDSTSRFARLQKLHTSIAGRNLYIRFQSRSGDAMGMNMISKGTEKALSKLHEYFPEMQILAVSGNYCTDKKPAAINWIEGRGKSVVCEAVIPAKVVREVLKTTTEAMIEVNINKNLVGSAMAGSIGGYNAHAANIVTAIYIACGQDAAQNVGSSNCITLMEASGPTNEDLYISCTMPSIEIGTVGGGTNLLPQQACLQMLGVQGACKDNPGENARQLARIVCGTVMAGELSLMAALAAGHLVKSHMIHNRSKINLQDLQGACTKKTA
Compound,estimated water content [1] [%],biological potency among enantiomers [2]
"CC(C)n1c(/C=C/[C@@H](O)C[C@@H](O)CC(=O)[O-])c(-c2ccc(F)cc2)c2ccccc21.[Na+] (single isomer, unassigned) [Form D, (3R,5S)- or (3S,5R)-7-(3-(4-fluorophenyl)-1-(1-methylethyl)-1H-indol-2-yl)-3,5-dihydroxy-6-heptenoic acid monosodium salt]",30,
"CC(C)n1c(/C=C/[C@@H](O)C[C@@H](O)CC(=O)[O-])c(-c2ccc(F)cc2)c2ccccc21.[Na+] (single isomer, unassigned; enantiomer 7) [(3R,5S)-enantiomer, 7-(3-(4-fluorophenyl)-1-(1-methylethyl)-1H-indol-2-yl)-3,5-dihydroxy-6-heptenoic acid monosodium salt]",,biologically most potent enantiomer
